Each compound was assayed against PLK1 (Homo sapiens, UniProt P53350) (assay: PLK1 Inhibition Assay I (radioactive-phosphate incorporation)). Settings: Ki(app); PLK1 Inhibition Assay I or II (table does not say which).
Type: biochemical
Method in brief: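 Ki(app) values came from non-linear regression of initial rates after background subtraction, with phosphopeptide measured by phosphocellulose filter binding and scintillation counting. PLK1 at 2 nM was preincubated with compound (typically from 10 μM, 2-fold dilutions) for 10 min, then run 240 min at 25° C with 350 μM [γ-33P]ATP and 450 μM peptide substrate in HEPES pH 7.5 buffer.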

Sequence of PLK1 (P53350 whole entry): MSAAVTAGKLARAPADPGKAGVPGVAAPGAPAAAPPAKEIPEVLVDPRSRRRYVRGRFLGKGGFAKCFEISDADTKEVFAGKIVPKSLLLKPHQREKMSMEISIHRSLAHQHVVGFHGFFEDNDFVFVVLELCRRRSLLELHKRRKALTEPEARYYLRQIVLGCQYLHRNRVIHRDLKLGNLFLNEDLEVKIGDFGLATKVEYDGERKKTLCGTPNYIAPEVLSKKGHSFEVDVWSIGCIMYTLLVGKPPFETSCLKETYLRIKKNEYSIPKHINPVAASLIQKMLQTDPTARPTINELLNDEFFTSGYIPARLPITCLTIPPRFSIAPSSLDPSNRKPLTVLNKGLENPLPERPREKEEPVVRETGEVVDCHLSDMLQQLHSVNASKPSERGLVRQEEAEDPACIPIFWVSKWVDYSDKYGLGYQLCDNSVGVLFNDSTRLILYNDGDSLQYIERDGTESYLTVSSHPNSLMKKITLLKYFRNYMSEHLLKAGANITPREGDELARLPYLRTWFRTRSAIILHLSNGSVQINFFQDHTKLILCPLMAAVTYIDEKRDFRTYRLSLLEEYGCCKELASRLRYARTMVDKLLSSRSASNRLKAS

SMILES	Ki [nM]
CC(Nc1ncc(C#N)c(-c2c[nH]c3ncc(C(F)(F)F)cc23)n1)c1ccc(N[C@@H]2CCN(C)C2)nc1 (stereo partly drawn) [Compound I-293, 2-(1-(6-((R)-1-methylpyrrolidin-3-ylamino)pyridin-3-yl)ethylamino)-4-(5-(trifluoromethyl)-1H-pyrrolo[2,3-b]pyridin-3-yl)pyrimidine-5-carbonitrile]	< 3
C[C@H](N)C(=O)N1CCC([C@@H](C)Nc2ncc(C#N)c(-c3c[nH]c4ncc(C(F)(F)F)cc34)n2)CC1 [Compound I-243, 2-((R)-1-(1-((S)-2-aminopropanoyl)piperidin-4-yl)ethylamino)-4-(5-(trifluoromethyl)-1H-pyrrolo[2,3-b]pyridin-3-yl)pyrimidine-5-carbonitrile]	< 3
N#Cc1cnc(NC(CO)C2CCOCC2)nc1-c1c[nH]c2ncc(C(F)(F)F)cc12 (stereo not drawn) [Compound I-105, 2-(2-hydroxy-1-(tetrahydro-2H-pyran-4-yl)ethylamino)-4-(5-(trifluoromethyl)-1H-pyrrolo[2,3-b]pyridin-3-yl)pyrimidine-5-carbonitrile]	3 to 40
C[C@@H](Nc1ncc(C#N)c(-c2c[nH]c3ncc(C(F)(F)F)cc23)n1)c1ccc(N2CC[C@H](N3CCCC3)C2)nc1 [Compound I-288, 2-((R)-1-(6-((S)-1,3′-bipyrrolidin-1′-yl)pyridin-3-yl)ethylamino)-4-(5-(trifluoromethyl)-1H-pyrrolo[2,3-b]pyridin-3-yl)pyrimidine-5-carbonitrile]	3 to 40
CC(=O)N1CCC([C@@H](C)Nc2ncc(C#N)c(-c3c[nH]c4ncc(C(F)(F)F)cc34)n2)CC1 [Compound I-134, 2-((R)-1-(1-acetylpiperidin-4-yl)ethylamino)-4-(5-(trifluoromethyl)-1H-pyrrolo[2,3-b]pyridin-3-yl)pyrimidine-5-carbonitrile]	< 3
CC(Nc1ncc(C#N)c(-c2c[nH]c3ncc(C(F)(F)F)cc23)n1)c1ccc(N2CC(O)C2)nc1 (stereo not drawn) [Compound I-201, 2-(1-(6-(3-hydroxyazetidin-1-yl)pyridin-3-yl)ethylamino)-4-(5-(trifluoromethyl)-1H-pyrrolo[2,3-b]pyridin-3-yl)pyrimidine-5-carbonitrile]	< 3
N#Cc1cnc(NCC2CCCCC2)nc1-c1c[nH]c2ncc(C(F)(F)F)cc12 [Compound I-29, 2-(cyclohexylmethylamino)-4-(5-(trifluoromethyl)-1H-pyrrolo[2,3-b]pyridin-3-yl)pyrimidine-5-carbonitrile]	3 to 40
C[C@@H](Nc1ncc(C#N)c(-c2c[nH]c3ncc(C(F)(F)F)cc23)n1)c1ccc(N(C)CCCN(C)C)nc1 [Compound I-283, 2-((R)-1-(6-((3-(dimethylamino)propyl)(methyl)amino)pyridin-3-yl)ethylamino)-4-(5-(trifluoromethyl)-1H-pyrrolo[2,3-b]pyridin-3-yl)pyrimidine-5-carbonitrile]	3 to 40
C[C@@H](Nc1ncc(C#N)c(-c2c[nH]c3ncc(C(F)(F)F)cc23)n1)c1ccc(N2CCCN(C)CC2)nc1 [Compound I-292, 2-((R)-1-(6-(4-methyl-1,4-diazepan-1-yl)pyridin-3-yl)ethylamino)-4-(5-(trifluoromethyl)-1H-pyrrolo[2,3-b]pyridin-3-yl)pyrimidine-5-carbonitrile]	< 3
C[C@H](CO)Nc1ncc(C#N)c(-c2c[nH]c3ncc(C(F)(F)F)cc23)n1 [Compound I-107, 2-((R)-1-hydroxypropan-2-ylamino)-4-(5-(trifluoromethyl)-1H-pyrrolo[2,3-b]pyridin-3-yl)pyrimidine-5-carbonitrile]	3 to 40
N#Cc1cnc(NCCN2CCSCC2)nc1-c1c[nH]c2ncc(C(F)(F)F)cc12 [Compound I-86, 2-(2-thiomorpholinoethylamino)-4-(5-(trifluoromethyl)-1H-pyrrolo[2,3-b]pyridin-3-yl)pyrimidine-5-carbonitrile]	> 40
CC(Nc1ncc(C#N)c(-c2c[nH]c3ncc(C(F)(F)F)cc23)n1)c1ccc(N2CCC(O)(C3CC3)CC2)nc1 (stereo not drawn) [Compound I-195, 2-(1-(6-(4-cyclopropyl-4-hydroxypiperidin-1-yl)pyridin-3-yl)ethylamino)-4-(5-(trifluoromethyl)-1H-pyrrolo[2,3-b]pyridin-3-yl)pyrimidine-5-carbonitrile]	3 to 40
N#Cc1cnc(NCc2ccc(F)cc2)nc1-c1c[nH]c2ncc(C(F)(F)F)cc12 [Compound I-22, 2-(4-fluorobenzylamino)-4-(5-(trifluoromethyl)-1H-pyrrolo[2,3-b]pyridin-3-yl)pyrimidine-5-carbonitrile]	> 40
N#Cc1cnc(NCc2ccc(Oc3ccccc3)cc2)nc1-c1c[nH]c2ncc(C(F)(F)F)cc12 [Compound I-46, 2-(4-phenoxybenzylamino)-4-(5-(trifluoromethyl)-1H-pyrrolo[2,3-b]pyridin-3-yl)pyrimidine-5-carbonitrile]	> 40
COC(=O)N1CCC(C(C)Nc2ncc(C#N)c(-c3c[nH]c4ncc(C(F)(F)F)cc34)n2)CC1 (stereo not drawn) [Compound I-152, methyl 4-(1-(5-cyano-4-(5-(trifluoromethyl)-1H-pyrrolo[2,3-b]pyridin-3-yl)pyrimidin-2-ylamino)ethyl)piperidine-1-carboxylate]	< 3
CNC(=O)N1CCC(C(C)Nc2ncc(C#N)c(-c3c[nH]c4ncc(C(F)(F)F)cc34)n2)CC1 (stereo not drawn) [Compound I-160, 4-(1-(5-cyano-4-(5-(trifluoromethyl)-1H-pyrrolo[2,3-b]pyridin-3-yl)pyrimidin-2-ylamino)ethyl)-N-methylpiperidine-1-carboxamide]	< 3
CCN(CC)CCN(C)c1ccc([C@@H](C)Nc2ncc(C#N)c(-c3c[nH]c4ncc(C(F)(F)F)cc34)n2)cn1 [Compound I-287, 2-((R)-1-(6-((2-(diethylamino)ethyl)(methyl)amino)pyridin-3-yl)ethylamino)-4-(5-(trifluoromethyl)-1H-pyrrolo[2,3-b]pyridin-3-yl)pyrimidine-5-carbonitrile]	3 to 40
CC(C)(Nc1ncc(C#N)c(-c2c[nH]c3ncc(Cl)cc23)n1)C(=O)NCC(F)(F)F [IA-11, 2-(4-(5-chloro-1H-pyrrolo[2,3-b]pyridin-3-yl)-5-cyanopyrimidin-2-ylamino)-2-methyl-N-(2,2,2-trifluoroethyl)propanamide]	3 to 40
C[C@@H](Nc1ncc(C#N)c(-c2c[nH]c3ncc(C(F)(F)F)cc23)n1)c1ccc(N(C)C2CCN(C)C2)nc1 (stereo partly drawn) [Compound I-295, 2-((1R)-1-(6-(methyl(1-methylpyrrolidin-3-yl)amino)pyridin-3-yl)ethylamino)-4-(5-(trifluoromethyl)-1H-pyrrolo[2,3-b]pyridin-3-yl)pyrimidine-5-carbonitrile]	< 3
CCC(CO)Nc1ncc(C#N)c(-c2c[nH]c3ncc(C(F)(F)F)cc23)n1 (stereo not drawn) [Compound I-39, 2-(1-hydroxybutan-2-ylamino)-4-(5-(trifluoromethyl)-1H-pyrrolo[2,3-b]pyridin-3-yl)pyrimidine-5-carbonitrile]	3 to 40
COc1ccc(Sc2ncc(C#N)c(-c3c[nH]c4ncc(C(F)(F)F)cc34)n2)cc1 [II-3, 2-(4-methoxyphenylthio)-4-(5-(trifluoromethyl)-1H-pyrrolo[2,3-b]pyridin-3-yl)pyrimidine-5-carbonitrile]	> 40
CC(Nc1ncc(C#N)c(-c2c[nH]c3ncc(C(F)(F)F)cc23)n1)[C@H]1C[C@@H](O)C1 (stereo partly drawn) [Compound I-270, 2-((S)-1-((1s,3R)-3-hydroxycyclobutyl)ethylamino)-4-(5-(trifluoromethyl)-1H-pyrrolo[2,3-b]pyridin-3-yl)pyrimidine-5-carbonitrile]	< 3
C[C@@H](Nc1ncc(C#N)c(-c2c[nH]c3ncc(C(F)(F)F)cc23)n1)c1ccc(C(=O)O)cc1 [Compound I-186, 4-((1R)-1-(5-cyano-4-(5-(trifluoromethyl)-1H-pyrrolo[2,3-b]pyridin-3-yl)pyrimidin-2-ylamino)ethyl)benzoic acid]	< 3
CNC(=O)c1ccc([C@@H](C)Nc2ncc(C#N)c(-c3c[nH]c4ncc(C(F)(F)F)cc34)n2)cc1 [Compound I-163, 4-((1R)-1-(5-cyano-4-(5-(trifluoromethyl)-1H-pyrrolo[2,3-b]pyridin-3-yl)pyrimidin-2-ylamino)ethyl)-N-methylbenzamide]	< 3
N#Cc1cnc(NCCCn2ccnc2)nc1-c1c[nH]c2ncc(C(F)(F)F)cc12 [Compound I-80, 2-(3-(1H-imidazol-1-yl)propylamino)-4-(5-(trifluoromethyl)-1H-pyrrolo[2,3-b]pyridin-3-yl)pyrimidine-5-carbonitrile]	> 40
CC(C)Sc1ncc(C#N)c(-c2c[nH]c3ncc(C(F)(F)F)cc23)n1 [II-12, 2-(isopropylthio)-4-(5-(trifluoromethyl)-1H-pyrrolo[2,3-b]pyridin-3-yl)pyrimidine-5-carbonitrile]	> 40
CC(Nc1ncc(C#N)c(-c2c[nH]c3ncc(C(F)(F)F)cc23)n1)C1CCN(C(=O)CO)CC1 (stereo not drawn) [Compound I-192, 2-(1-(1-(2-hydroxyacetyl)piperidin-4-yl)ethylamino)-4-(5-(trifluoromethyl)-1H-pyrrolo[2,3-b]pyridin-3-yl)pyrimidine-5-carbonitrile]	< 3
CCN(Cc1ccccc1)c1ncc(C#N)c(-c2c[nH]c3ncc(C(F)(F)F)cc23)n1 [Compound I-11, 2-(benzyl(ethyl)amino)-4-(5-(trifluoromethyl)-1H-pyrrolo[2,3-b]pyridin-3-yl)pyrimidine-5-carbonitrile]	> 40
CCCC(C)Sc1ncc(C#N)c(-c2c[nH]c3ncc(C(F)(F)F)cc23)n1 (stereo not drawn) [II-16, 2-(pentan-2-ylthio)-4-(5-(trifluoromethyl)-1H-pyrrolo[2,3-b]pyridin-3-yl)pyrimidine-5-carbonitrile]	> 40
C[C@@H](Nc1ncc(C#N)c(-c2c[nH]c3ncc(C(F)(F)F)cc23)n1)c1ccc(N2CCN3CCC[C@H]3C2)nc1 [Compound I-291, 2-((R)-1-(6-((S)-hexahydropyrrolo[1,2-a]pyrazin-2(1H)-yl)pyridin-3-yl)ethylamino)-4-(5-(trifluoromethyl)-1H-pyrrolo[2,3-b]pyridin-3-yl)pyrimidine-5-carbonitrile]	< 3

Source: patent US8530489B2 (Vertex Pharmaceuticals Incorporated, priority 2006, dated 2013)
